Several values for one entry are separate records, joined by “and”; a condition that tells them apart may be missing. Equal values may be shown once.
Experiments:
pancreatic lipase = molecular target: T1, pancreatic lipase (Sus scrofa, UniProt P00591); assay: Glycerol liberated from α,β-diglyceride substrates by pancreatic lipase only; type: biochemical; conditions: only pancreatic lipase used
T1 sequence (P00591 1-450): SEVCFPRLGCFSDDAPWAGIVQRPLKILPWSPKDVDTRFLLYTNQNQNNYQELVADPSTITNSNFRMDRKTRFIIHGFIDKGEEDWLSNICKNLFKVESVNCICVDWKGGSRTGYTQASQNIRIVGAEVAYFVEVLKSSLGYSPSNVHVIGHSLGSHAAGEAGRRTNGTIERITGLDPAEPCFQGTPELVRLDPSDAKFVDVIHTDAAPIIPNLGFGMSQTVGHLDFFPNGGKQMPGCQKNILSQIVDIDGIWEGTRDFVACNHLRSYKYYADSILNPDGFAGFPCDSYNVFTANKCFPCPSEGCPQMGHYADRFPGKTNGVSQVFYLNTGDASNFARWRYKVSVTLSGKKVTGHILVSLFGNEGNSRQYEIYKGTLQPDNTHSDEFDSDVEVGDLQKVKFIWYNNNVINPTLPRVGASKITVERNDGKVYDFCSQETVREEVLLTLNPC
Text: (§1) (i) Pancreatic lipase and the monoglyceride lipase are applied to the below-described α,β-diglyceride substrates. Their α-positions are hydrolyzed by the pancreatic lipase and then the resulting β-monoglycerides are allowed to react with the monoglyceride lipase, in order to analyze glycerol thus liberated. Glycerol is detected with respect to the substrates, namely,α-oleyl-β-palmitoyldiglyceride, α-palmitoly-β-oleolyldiglyceride and α,β-dilinoleylglyceride. However, glycerol is not detected when only pancreatic lipase is used.

[1] = test system: Pancreatic lipase and the monoglyceride lipase; assay: Glycerol liberated from α,β-diglyceride substrates by pancreatic lipase plus monoglyceride lipase; type: biochemical; conditions: pancreatic lipase and monoglyceride lipase applied
Text: (2) Substrate specificity of the monoglyceride lipase upon use of α,β-diglyceride as a substrate:
as §1

monoglyceride lipase [2] = assay: Substrate specificity of the monoglyceride lipase (enzymatic activity assay, glycerol formed); type: biochemical, Bacillus stearothermophilus H-165; conditions: for Activity of lipase (%): relative activity of monoglyceride lipase on the substrate, Monolaurin 100.0; for Glycerol hydrolyzed from substrate in the presence of the monoglyceride lipase: diglyceride or triglyceride used as substrate
Description: (8) Substrate specificity: The substrate specificity of the monoglyceride lipase in this invention is investigated under conditions where the below-described assay method of enzymatic activity for the monoglyceride lipase is conducted.
MEASUREMENT METHOD OF ENZYMATIC ACTIVITY OF MONOGLYCERIDE LIPASE
(§2) To 0.4 ml of a solution of the above composition, is added 50 μl of 10 mM monolaurin (0.5 % aqueous solution of "Triton X-100"). The resultant mixture is pre-incubated at 37° C. for 2-3 minutes and 50 μl of an enzyme solution is added to initiate a reaction. Exactly 10 minutes later, 2.5 ml of 5 % SDS (sodium dodecyl sulfate) is added to terminate the reaction. The absorbance is measured at 550 nm. Regarding the enzymatic activity, the activity capable of producing 1 μmole of glycerol per minute is defined at 1 Unit (1 U). The following equation is used for calculation of enzymatic activity (potency): [formula] wherein ΔA 550: Absorbance at the wavelength of 550 nm

monoglyceride lipase [3] = assay: Effects of surface active agents and metal ions on the monoglyceride lipase; type: biochemical, Bacillus stearothermophilus H-165; conditions: for Activity of lipase (%): no reagent 100; for Effect of added reagent on monoglyceride lipase activity: Table 2
Description: The mon[…] is not affected by the addition of divalent metal ions such as Ca^++ and Mg^++.
MEASUREMENT METHOD OF ENZYMATIC ACTIVITY OF MON[…]
as §2

[4] = reagent concentration 1 mM, 10 min

For `CCCCCCCC/C=C\CCCCCCCC(=O)OC(CO)COC(=O)CCCCCCCCCCCCCCC` (stereo not drawn) [α-palmitoly-β-oleolyldiglyceride], the Glycerol liberated (pancreatic lipase) was “not detected” and the Glycerol liberated [1] was “detected”.
For `CC(=O)OCC(O)CO` (stereo not drawn) [Monoacetin], the “Activity of lipase (%)” value (monoglyceride lipase [2]) was 10.1%.
For `CCCC(=O)OCC(O)CO` (stereo not drawn) [Monobutyrin], the “Activity of lipase (%)” value (monoglyceride lipase [2]) was 47.1%.
With `CC(=O)OCC(COC(C)=O)OC(C)=O` [Triacetin] the “Activity of lipase (%)” value (monoglyceride lipase [2]) was 0%.
For `CCCC(=O)OCC(COC(=O)CCC)OC(=O)CCC` [Tributyrin], the “Activity of lipase (%)” value (monoglyceride lipase [2]) was 0%.
For `CCCCC/C=C\C/C=C\CCCCCCCC(=O)OCC(O)COC(=O)CCCCCCC/C=C\C/C=C\CCCCC` [1,3-dilinolein], the “Glycerol hydrolyzed from substrate in the presence of the monoglyceride lipase” value (“Glycerol hydrolyzed from substrate” for short) (monoglyceride lipase [2]) was “no glycerol hydrolyzed is detected” and the “Activity of lipase (%)” value (monoglyceride lipase [2]) was 0%.
`CCCCCCCCCCCC(=O)OCC(O)CO` (stereo not drawn) [Monolaurin] was tested, and the “Activity of lipase (%)” value (monoglyceride lipase [2]) was 100.0%.
For `CCCCCCCC/C=C\CCCCCCCC(=O)OCC(COC(=O)CCCCCCC/C=C\CCCCCCCC)OC(=O)CCCCCCC/C=C\CCCCCCCC` [Triolein], the “Glycerol hydrolyzed from substrate” value (monoglyceride lipase [2]) was “no glycerol hydrolyzed is detected” and the “Activity of lipase (%)” value (monoglyceride lipase [2]) was 0%.
For `O=C(O)CN(CCN(CC(=O)O)CC(=O)O)CC(=O)O` [EDTA], the “Activity of lipase (%)” value (monoglyceride lipase [3]; [4]) was 86.0%.
`[Cl-].[Cl-].[Mg+2]` [MgCl2, magnesium chloride] was tested, and the “Effect of added reagent on monoglyceride lipase activity” value (shortened to “Effect of added reagent”) (monoglyceride lipase [3]) was “not affected” and the “Activity of lipase (%)” value (monoglyceride lipase [3]; [4]) was 100.0%.
In the case of `[Ca+2].[Cl-].[Cl-]` [CaCl2, calcium chloride], the “Effect of added reagent” value (monoglyceride lipase [3]) is reported as “not affected” and the “Activity of lipase (%)” value (monoglyceride lipase [3]; [4]) is reported as 100.0%.
For `CCCCC/C=C\C/C=C\CCCCCCCC(=O)OCC(CO)OC(=O)CCCCCCC/C=C\C/C=C\CCCCC` (stereo not drawn) [1,2-dilinolein], the “Glycerol hydrolyzed from substrate” value (monoglyceride lipase [2]) was “no glycerol hydrolyzed is detected” and the “Activity of lipase (%)” value (monoglyceride lipase [2]) was 0%.
With `CCCCCCCC/C=C\CCCCCCCC(=O)OCC(CO)OC(=O)CCCCCCCCCCCCCCC` (stereo not drawn) [α-oleyl-β-palmitoyldiglyceride] the Glycerol liberated (pancreatic lipase) was “not detected” and the Glycerol liberated [1] was “detected”.
In the case of `CCCCCCCCCC(=O)OCC(O)CO` (stereo not drawn) [Monocaprin], the “Activity of lipase (%)” value (monoglyceride lipase [2]) is reported as 89.1%.
In the case of `CCCCC/C=C\C/C=C\CCCCCCCC(=O)OCC(CO)OC(=O)CCCCCCC/C=C\C/C=C\CCCCC` (stereo not drawn) [α,β-dilinoleylglyceride], the Glycerol liberated (pancreatic lipase) is reported as “not detected” and the Glycerol liberated [1] is reported as “detected”.
In the case of `CCCCCCCCCCCCCC(=O)OCC(O)CO` (stereo not drawn) [Monomyristin], the “Activity of lipase (%)” value (monoglyceride lipase [2]) is reported as 85.7%.
For `CCCCCCCC/C=C\CCCCCCCC(=O)OCC(O)CO` (stereo not drawn) [Monoolein], the “Activity of lipase (%)” value (monoglyceride lipase [2]) was 56.3% and 75.6%.
`CCCCCCCCCCCCCCCC(=O)OCC(O)CO` (stereo not drawn) [Monopalmitin] was tested, and the “Activity of lipase (%)” value (monoglyceride lipase [2]) was 39.5%.
For `CCCCCCCCCCCCCCCCCC(=O)OCC(O)CO` (stereo not drawn) [Monostearin], the “Activity of lipase (%)” value (monoglyceride lipase [2]) was 27.6%.
For `C[C@H](CCC(=O)O)[C@H]1CC[C@H]2[C@@H]3[C@H](O)C[C@@H]4C[C@H](O)CC[C@]4(C)[C@H]3C[C@H](O)[C@]12C` [Cholic acid], the “Effect of added reagent” value (monoglyceride lipase [3]) was “inhibition of the activity is observed in the high concentration range”, the “Activity of lipase (%)” value (monoglyceride lipase [3]; [4]) was 100.0% and the “Activity of lipase (%)” value (monoglyceride lipase [3]; reagent concentration 10 mM) was 92.6%.
